According to patent US20060052370A1, “Methods and compositions for treating nociceptive pain” (priority 2004, published 2006):
“Also recorded” adds a separate entry of the source. Like-named read-outs stand apart in the source and are kept apart here.

Legend:
[1] = humans; cited from earlier work
[2] = memantine and morphine combination
[3] = humans; cited from earlier work; remark: listed apart in the source

| SMILES | Human PK (t½) [1] [h] | Tmax [1] [h] | cum. fraction ([2]; Time 1) | cum. fraction ([2]; Time 2) | cum. fraction ([2]; Time 4) | cum. fraction ([2]; Time 8) | cum. fraction ([2]; Time 12) | cum. fraction ([2]; Time 16) | cum. fraction ([2]; Time 20) | cum. fraction ([2]; Time 24) | Dose Dependent Tox [3] |
| --- | --- | --- | --- | --- | --- | --- | --- | --- | --- | --- | --- |
| NC12CC3CC(CC(C3)C1)C2 [Amantadine, 1-amino-adamantane] | 15 | 3 |  |  |  |  |  |  |  |  |  |
| CC12CC3CC(C)(C1)CC(N)(C3)C2 [Memantine, 1-amino-3,5-dimethyladamantane] |  | 3 | 0.2 | 0.3 | 0.4 | 0.5 | 0.6 | 0.7 | 0.8 | 0.9 | Dose escalation; also recorded: hallucination |
| CN1CC[C@]23c4c5ccc(O)c4O[C@H]2[C@@H](O)C=C[C@H]3[C@H]1C5 [Morphine] |  |  | 0.2 | 0.3 | 0.4 | 0.5 | 0.6 | 0.7 | 0.8 | 0.9 |  |
| CC(N)C12CC3CC(CC(C3)C1)C2 (stereo not shown) [Rimantadine, 1-(1-aminoethyl)adamantane] | 25 | 6 |  |  |  |  |  |  |  |  |  |
